Measurements: paper PMC8780855, “Synthesis, Crystallographic, Quantum Chemical, Antitumor, and Molecular Docking/Dynamic Studies of 4-Hydroxycoumarin-Neurotransmitter Derivatives” (International Journal of Molecular Sciences, 2022)
Where two headings read alike, the source gives them in different places.

Legend:
HeLa cells = assay: MTT cytotoxicity assay, HeLa; format: cell-based, human; details: for IC50: Homo sapiens, HeLa, MTT; for Selectivity index HeLa/MRC-5 24 h: SI between HeLa and MRC-5, 24 h; for Selectivity index HeLa/MRC-5 72 h: SI between HeLa and MRC-5, 72 h
Protocol: (§1) The in vitro cytotoxic activity of the tested compounds was investigated on four model systems: human colorectal carcinoma HCT-116, human breast cancer MDA-MB-231, human cervical cancer HeLa, and human healthy fibroblast MRC-5 cell lines. The cell lines of low passages were purchased from ECACC and were cultivated in Dulbecco’s Modified Eagle Medium (DMEM; Sigma-Aldrich, Germany, D5796) supplemented with 10% fetal bovine serum (Sigma-Aldrich, F4135-500ML) and 1% penicillin/streptomycin (Sigma-Aldrich, P4333-100ML) in 75 cm^2 culture flasks. The cells were harvested in an incubator under a humidified atmosphere with 5% CO2 at a physiological temperature of 37 °C, and after a few passages and a confluence of about 90%, the cells were used for the MTT assay.
(§2) The capacity of tested compounds to prevent the growth of four different cell lines was assessed by a standardized MTT assay (Laboratory for Bioengineering protocol CB-005, Kragujevac, Serbia), based on spectrophotometric measurement of the reduction of 3-(4,5-dimethylthiazol-2-yl)-2,5-diphenyltetrazolium bromide (MTT, Acros Organics, NJ, USA 158990010) to purple formazan crystals subsequently dissolved in dimethyl sulfoxide (DMSO; Fisher Chemical, IL, USA D/4121/PB15). A number of 1 × 10^4 cells per well (in 96-well microplates) were seeded and maintained in an incubator for 24 h to allow for cell attachment. After the incubation period, the cells were treated with the investigated compounds in the concentration range from 0.1 to 500 µM dissolved in DMEM. Cytotoxic effect was calculated 24 and 72 h from treatment by determination of the number of viable cells. The absorbance measured at 550 nm and was performed on a microplate reader (Rayto 2100C, China). The cytotoxicity was derived as the ratio of the absorbance of the treated cells divided with the absorbance of negative control (untreated cells) and multiplied by 100 to obtain the percentage of the viable cells.

MRC-5 cells = assay: MTT cytotoxicity assay, MRC-5 healthy fibroblasts; format: cell-based; details: Homo sapiens
Protocol: as §1, §2

HCT-116 cells = assay: MTT cytotoxicity assay, HCT-116; format: cell-based, human; details: for IC50: Homo sapiens, MTT; for Selectivity index HCT-116/MRC-5 24 h: SI between HCT-116 and MRC-5, 24 h; for Selectivity index HCT-116/MRC-5 72 h: SI between HCT-116 and MRC-5, 72 h
Protocol: as §1, §2

MDA-MB-231 cells = assay: MTT cytotoxicity assay, MDA-MB-231; format: cell-based; details: Homo sapiens
Protocol: as §1, §2

[1] = read-out: IC50 HeLa 24 h, 24 h exposure
[2] = 72 h exposure, read-out: IC50 HeLa 72 h
[3] = MRC5, MRC-5, 72 h exposure, read-out: IC50 MRC-5 72 h
[4] = MRC5, read-out: IC50 MRC-5 24 h, MRC-5, 24 h exposure
[5] = read-out: IC50 HCT-116 24 h, HCT-116, 24 h exposure
[6] = HCT-116, 72 h exposure, read-out: IC50 HCT-116 72 h
[7] = MDA-MB-231, 72 h exposure, read-out: IC50 MDA-MB-231 72 h
[8] = read-out: IC50 MDA-MB-231 24 h, MDA-MB-231, 24 h exposure

SMILES | IC50 (HeLa cells; [1]) | IC50 (HeLa cells; [2]) | Selectivity index HeLa/MRC-5 24 h (HeLa cells) | Selectivity index HeLa/MRC-5 72 h (HeLa cells) | IC50 (MRC-5 cells; [3]) | IC50 (MRC-5 cells; [4]) | IC50 (HCT-116 cells; [5]) | IC50 (HCT-116 cells; [6]) | Selectivity index HCT-116/MRC-5 24 h (HCT-116 cells) | Selectivity index HCT-116/MRC-5 72 h (HCT-116 cells) | IC50 (MDA-MB-231 cells; [7]) | IC50 (MDA-MB-231 cells; [8])
COc1cc(CCN/C(C)=C2/C(=O)Oc3ccccc3C2=O)ccc1O [L4, (E)-3-(1-((4-hydroxy-3-methoxyphenethyl)amino)ethylidene)chromane-2,4-dione] | > 500 µM | 150 µM | 1 | 3.3 | > 500 µM | > 500 µM | > 500 µM | 74 µM | 1 | 6.8 | > 500 µM | > 500 µM
C/C(NCCc1ccc(O)cc1)=C1\C(=O)Oc2ccccc2C1=O [L1, (E)-3-(1-((4-hydroxyphenethyl)amino)ethylidene)chromane-2,4-dione] | > 500 µM | 452 µM | 1 | 1.1 | > 500 µM | > 500 µM | > 500 µM | 170 µM | 1 | 2.9 | > 500 µM | > 500 µM
C/C(NCC(O)c1ccc(O)cc1)=C1\C(=O)Oc2ccccc2C1=O (stereo not drawn) [L2, (E)-3-(1-((2-hydroxy-2-(4-hydroxyphenyl)ethyl)amino)ethylidene)chromane-2,4-dione] | > 500 µM | 206 µM | 1 | 2.4 | > 500 µM | > 500 µM | > 500 µM | 248 µM | 1 | 2.0 | > 500 µM | > 500 µM
C/C(NCC(O)c1ccc(O)c(O)c1)=C1\C(=O)Oc2ccccc2C1=O (stereo not drawn) [L3, (E)-3-(1-((2-(3,4-dihydroxyphenyl)-2-hydroxyethyl)amino)ethylidene)chromane-2,4-dione] | > 500 µM | 495 µM | 1 | 1 | > 500 µM | > 500 µM | > 500 µM | 107 µM | 1 | 4.7 | > 500 µM | > 500 µM
CC(NCCc1ccc(O)c(O)c1)=C1C(=O)Oc2ccccc2C1=O [L5, 3-(1-((3,4-dihydroxyphenethyl)amino)ethylidene)-chroman-2,4-dione] | > 500 µM | 92 µM | 1 | 5.4 | > 500 µM | > 500 µM | > 500 µM | 73 µM | 1 | 6.8 | > 500 µM | > 500 µM
